These results are taken from US10538555B2, “Macrocyclic inhibitors of the PD-1/PD-L1 and CD80(B7-1)/PD-L1 protein/protein interactions” (BRISTOL-MYERS SQUIBB COMPANY, priority 2014, dated 2020).

*1 amine or outer side, *2 acyl side, *3 side chain or, on linkers, in order; H or OH if unused. Where a SMILES comes first, the peptide text is derived from it. Bridges are numbered along the chain shown (N, C = ends). [ ]: non-standard residue; d: D form. ξ: configuration not given here. X10 = CC(C)C[C@H](CC(=O)[C@H](Cc1cnc[nH]1)N[*:1])C(=O)[*:2]; Trp(1-CH2COOH) = N[C@@H](Cc1cn(CC(=O)O)c2ccccc12)C(=O)O; Phe(3,4,5-F3) = N[C@@H](Cc1cc(F)c(F)c(F)c1)C(=O)O; Phe(3,4-F2) = N[C@@H](Cc1ccc(F)c(F)c1)C(=O)O; NMePhe(4-F) = CN[C@@H](Cc1ccc(F)cc1)C(=O)O; Phe(4-F) = N[C@@H](Cc1ccc(F)cc1)C(=O)O; Phe(4-Me) = Cc1ccc(C[C@H](N)C(=O)O)cc1; d(cisHyp) = O=C(O)[C@H]1C[C@@H](O)CN1; NMeIle(3ξ) = CCC(C)[C@H](NC)C(=O)O; Hyp = O=C(O)[C@@H]1C[C@@H](O)CN1; NMeF = CN[C@@H](Cc1ccccc1)C(=O)O; X1 = O=C([C@H]1COCCN1[*:1])[*:2]; dPip(4-aza) = O=C(O)[C@H]1CNCCN1; dHyp = O=C(O)[C@H]1C[C@H](O)CN1; NMeNle = CCCC[C@H](NC)C(=O)O; Tle = CC(C)(C)[C@H](N)C(=O)O; Pip = O=C(O)[C@@H]1CCCCN1; dPip = O=C(O)[C@H]1CCCCN1; hSer = N[C@@H](CCO)C(=O)O; NMeA = CN[C@@H](C)C(=O)O; dNMeA = CN[C@H](C)C(=O)O; Dab = NCC[C@H](N)C(=O)O; Dap = NC[C@H](N)C(=O)O; ξP = O=C(O)C1CCCN1; ξC = NC(CS)C(=O)O; Sar = CNCC(=O)O

T1 sequence (Q9NZQ7 with tags, fused parts or gaps): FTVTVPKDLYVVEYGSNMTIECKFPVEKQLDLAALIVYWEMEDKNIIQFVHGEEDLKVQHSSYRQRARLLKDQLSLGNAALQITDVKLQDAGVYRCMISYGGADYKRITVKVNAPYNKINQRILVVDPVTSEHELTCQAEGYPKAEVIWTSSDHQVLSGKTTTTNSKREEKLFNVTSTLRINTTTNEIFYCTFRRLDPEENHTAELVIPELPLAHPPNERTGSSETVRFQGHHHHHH

The first test addresses T1, Human PD-L1/PD-1 (Homo sapiens, UniProt Q9NZQ7).
T1 construct: TVMV protease cleavage site (C); made in house; host or cells: HEK293T cells
Nature of the test: HTRF Human PD-L1/PD-1 binding assay (PD-1-Ig/PD-L1-His). The note with it: PD-L1-His 10 nM, PD-1-Ig 20 nM; class symbol; read-out: HTRF Human PD-L1/PD-1 Binding Assay IC50 Range. Put shortly:
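HTRF read-out (665/620 nm ratio) after 30 min equilibration with Eu-cryptate anti-Ig mAb (1 nM) and APC anti-His mAb (20 nM). Peptides preincubated 15 min with PD-L1-His (10 nM), then PD-1-Ig (20 nM) added for 15 min.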
For the compound `CCCC[C@H]1C(=O)N2CCC[C@@H]2C(=O)N[C@@H](CC(=O)O)C(=O)N[C@@H](C(C)C)C(=O)N(C)[C@@H](Cc2ccccc2)C(=O)N[C@@H](CCC(=O)O)C(=O)N2CCOC[C@@H]2C(=O)N[C@@H](Cc2c[nH]c3ccccc23)C(=O)N[C@@H](Cc2ccc(O)cc2)C(=O)N[C@@H](CCC(N)=O)C(=O)N[C@H](C(=O)NCC(N)=O)CSCC(=O)N[C@@H](Cc2cc(F)c(F)c(F)c2)C(=O)N(C)[C@@H](Cc2ccc(F)cc2)C(=O)N1C` [Example 10607] ({CH2CO}-[Phe(3,4,5-F3)][NMePhe(4-F)][NMeNle][dP]DV[NMeF]E[X1]WYQCG-NH2; thioether N-13), the IC50 was 1 to 9.9 nM.
Take `CC(C)C[C@@H]1NC(=O)[C@H](Cc2ccc(O)cc2)NC(=O)[C@H](Cc2c[nH]c3ccccc23)NC(=O)[C@@H](C)N(C)C(=O)[C@H](Cc2ccc(O)cc2)NC(=O)[C@H](Cc2ccccc2)N(C)C(=O)[C@H](C(C)C)NC(=O)[C@H](CC(N)=O)NC(=O)[C@@H](C)N(C)C(=O)[C@H](C)N(C)C(=O)[C@H](Cc2ccccc2)N(C)C(=O)[C@H](Cc2cc(F)c(F)c(F)c2)NC(=O)CSC[C@@H](C(=O)NCC(N)=O)NC1=O` [Example 9190] ({CH2CO}-[Phe(3,4,5-F3)][NMeF][NMeA][dNMeA]NV[NMeF]Y[dNMeA]WYLCG-NH2; thioether N-13): the IC50 lay within 10 to 99.9 nM.
Regarding `CCCC[C@H]1C(=O)N(C)[C@@H](CCCC)C(=O)N[C@@H](CCC(=O)O)C(=O)N[C@H](C(=O)NCC(N)=O)CSCC(=O)N[C@@H](Cc2ccc(O)cc2)C(=O)N(C)[C@@H](C)C(=O)N[C@@H](CC(N)=O)C(=O)N2CCCC2C(=O)N[C@@H](Cc2cnc[nH]2)C(=O)N[C@@H](CCC(N)=O)C(=O)N2C[C@H](O)C[C@H]2C(=O)N[C@@H](Cc2c[nH]c3ccccc23)C(=O)N[C@@H](CCN)C(=O)N[C@@H](Cc2cn(CC(=O)O)c3ccccc23)C(=O)N1C` (some centres unmarked) [Example 6288] ({CH2CO}-Y[NMeA]N[ξP]HQ[Hyp]W[Dab][Trp(1-CH2COOH)][NMeNle][NMeNle]ECG-NH2; thioether N-14), the IC50 lay within 1 to 9.9 nM.
Turning to `CCCC[C@H]1C(=O)N(C)[C@@H](CCCC)C(=O)N[C@@H](CCC(=O)O)C(=O)NC(C(=O)NCC(N)=O)CSCC(=O)N[C@@H](Cc2ccc(O)cc2)C(=O)N(C)[C@@H](C)C(=O)N[C@@H](CC(N)=O)C(=O)N2CCC[C@H]2C(=O)N[C@@H](CC(N)=O)C(=O)N[C@@H](CC(C)C)C(=O)N2CCC[C@H]2C(=O)N[C@@H](Cc2c[nH]c3ccccc23)C(=O)N[C@@H](CN)C(=O)N[C@@H](Cc2c[nH]c3ccccc23)C(=O)N1C` (some centres unmarked) [Example 9176] ({CH2CO}-Y[NMeA]NPNLPW[Dap]W[NMeNle][NMeNle]E[ξC]G-NH2; thioether N-14), the IC50 lay within 100 to 990 nM.
In the case of `CCCC[C@H]1C(=O)N2C[C@@H](O)C[C@@H]2C(=O)N[C@@H](CC(=O)O)C(=O)N[C@@H](C(C)C)C(=O)N(C)[C@@H](Cc2ccccc2)C(=O)N[C@@H](Cc2ccc(OC)cc2)C(=O)N2C[C@@H](O)C[C@@H]2C(=O)N[C@@H](Cc2c[nH]c3ccccc23)C(=O)N[C@@H](Cc2ccc(O)cc2)C(=O)N[C@@H](CC(C)C)C(=O)N[C@H](C(=O)NCC(N)=O)CSCC(=O)N[C@@H](Cc2ccc(F)c(F)c2)C(=O)N(C)[C@@H](Cc2ccccc2)C(=O)N1C` [Example 9225] ({CH2CO}-[Phe(3,4-F2)][NMeF][NMeNle][dHyp]DV[NMeF]Y(Me)[dHyp]WYLCG-NH2; thioether N-13), the IC50 fell in the range of 1 to 9.9 nM.
For the compound `CCCC[C@H]1C(=O)N(C)[C@@H](CCCC)C(=O)N[C@@H](CCCNC(=N)N)C(=O)N[C@H](C(=O)NCC(N)=O)CSCC(=O)N[C@@H](Cc2ccc(C)cc2)C(=O)N(C)[C@@H](C)C(=O)N[C@@H](CC(N)=O)C(=O)N2CCC[C@H]2C(=O)N[C@@H](Cc2cnc[nH]2)C(=O)C[C@@H](CC(C)C)C(=O)N2C[C@H](O)C[C@H]2C(=O)N[C@@H](Cc2c[nH]c3ccccc23)C(=O)N[C@@H](CO)C(=O)N[C@@H](Cc2c[nH]c3ccccc23)C(=O)N1C` [Example 7071] ({CH2CO}-[Phe(4-Me)][NMeA]NP[X10][Hyp]WSW[NMeNle][NMeNle]RCG-NH2; thioether N-13), the IC50 lay in the range of 1 to 9.9 nM.
As for `CCCC[C@H]1C(=O)N2CCC[C@@H]2C(=O)N[C@@H](CC(=O)O)C(=O)N[C@@H](C(C)C)C(=O)N(C)[C@@H](Cc2ccccc2)C(=O)N[C@@H](CCC(=O)O)C(=O)N2C[C@H](O)C[C@@H]2C(=O)N[C@@H](Cc2c[nH]c3ccccc23)C(=O)N[C@@H](Cc2ccc(O)cc2)C(=O)N[C@@H](CCOC)C(=O)N[C@H](C(=O)NCC(N)=O)CSCC(=O)N[C@@H](Cc2cc(F)c(F)c(F)c2)C(=O)N(C)[C@@H](Cc2ccccc2)C(=O)N1C` [Example 10188] ({CH2CO}-[Phe(3,4,5-F3)][NMeF][NMeNle][dP]DV[NMeF]E[d(cisHyp)]WY[hSer](Me)CG-NH2; thioether N-13), the IC50 was 1 to 9.9 nM.
Take `CCCC[C@H]1C(=O)N(C)[C@@H](CCCC)C(=O)N[C@@H](C)C(=O)N[C@H](C(=O)NCC(N)=O)CSCC(=O)N[C@@H](Cc2ccc(O)cc2)C(=O)N2CCCC[C@H]2C(=O)N[C@@H](CC(=O)O)C(=O)N2CCC[C@H]2C(=O)N[C@@H](CN)C(=O)N[C@@H](CCC(N)=O)C(=O)N2C[C@H](O)C[C@H]2C(=O)N[C@@H](Cc2c[nH]c3ccccc23)C(=O)N[C@@H](CO)C(=O)N[C@@H](Cc2c[nH]c3ccccc23)C(=O)N1C` [Example 1257] ({CH2CO}-Y[Pip]DP[Dap]Q[Hyp]WSW[NMeNle][NMeNle]ACG-NH2; thioether N-14): the IC50 lay within 1 to 9.9 nM.
In the case of `CCCC[C@H]1C(=O)N(C)CC(=O)N[C@@H](CC(=O)O)C(=O)N[C@@H](C(C)C)C(=O)N(C)[C@@H](Cc2ccccc2)C(=O)N[C@@H](Cc2c[nH]c3ccccc23)C(=O)N(C)CC(=O)N[C@@H](Cc2c[nH]c3ccccc23)C(=O)N[C@@H](Cc2ccc(O)cc2)C(=O)N[C@@H](CC(C)C)C(=O)N[C@H](C(=O)NCC(N)=O)CSCC(=O)N[C@@H](Cc2ccccc2)C(=O)N(C)[C@@H](Cc2ccccc2)C(=O)N1C` [Example 3231] ({CH2CO}-F[NMeF][NMeNle][Sar]DV[NMeF]W[Sar]WYLCG-NH2; thioether N-13), the IC50 is 1 to 9.9 nM.
Regarding `CCCC[C@H]1C(=O)N2CCNC[C@@H]2C(=O)N[C@@H](CC(=O)O)C(=O)N[C@@H](C(C)C)C(=O)N(C)[C@@H](Cc2ccccc2)C(=O)N[C@@H](CCC(=O)O)C(=O)N2C[C@H](O)C[C@@H]2C(=O)N[C@@H](Cc2c[nH]c3ccccc23)C(=O)N[C@@H](Cc2ccc(O)cc2)C(=O)N[C@@H](CC(C)C)C(=O)N[C@H](C(=O)NCC(N)=O)CSCC(=O)N[C@@H](Cc2cc(F)c(F)c(F)c2)C(=O)N(C)[C@@H](Cc2ccccc2)C(=O)N1C` [Example 10167] ({CH2CO}-[Phe(3,4,5-F3)][NMeF][NMeNle][dPip(4-aza)]DV[NMeF]E[d(cisHyp)]WYLCG-NH2; thioether N-13), the IC50 is 1 to 9.9 nM.
Take `CCCC[C@H]1C(=O)N2C[C@H](O)C[C@@H]2C(=O)N[C@@H](CC(=O)O)C(=O)N[C@@H](C(C)C)C(=O)N(C)[C@@H](Cc2ccccc2)C(=O)N[C@@H](CC(=O)O)C(=O)N2C[C@H](O)C[C@@H]2C(=O)N[C@@H](Cc2c[nH]c3ccccc23)C(=O)N[C@@H](Cc2ccc(O)cc2)C(=O)N[C@@H](CCCCN)C(=O)N[C@H](C(=O)NCC(N)=O)CSCC(=O)N[C@@H](Cc2cc(F)c(F)c(F)c2)C(=O)N(C)[C@@H](Cc2ccccc2)C(=O)N1C` [Example 9345] ({CH2CO}-[Phe(3,4,5-F3)][NMeF][NMeNle][d(cisHyp)]DV[NMeF]D[d(cisHyp)]WYKCG-NH2; thioether N-13): the IC50 was 1 to 9.9 nM.
As for `CCCC[C@H]1C(=O)N2CCC[C@@H]2C(=O)N[C@@H](CC(=O)O)C(=O)N[C@@H](C(C)(C)C)C(=O)N(C)[C@@H](Cc2ccccc2)C(=O)N[C@@H](Cc2ccc(O)cc2)C(=O)N2CCOC[C@@H]2C(=O)N[C@@H](Cc2c[nH]c3ccccc23)C(=O)N[C@@H](Cc2ccc(O)cc2)C(=O)N[C@@H](CC(C)C)C(=O)N[C@H](C(=O)NCC(N)=O)CSCC(=O)N[C@@H](Cc2cc(F)c(F)c(F)c2)C(=O)N(C)[C@@H](Cc2ccccc2)C(=O)N1C` [Example 3223] ({CH2CO}-[Phe(3,4,5-F3)][NMeF][NMeNle][dP]D[Tle][NMeF]Y[X1]WYLCG-NH2; thioether N-13), the IC50 was in the range of 1 to 9.9 nM.

Staying with this test, now noted: PD-L1-His 10 nM, PD-1-Ig 20 nM; read-out: HTRF Human PD-L1/PD-1 Binding Assay IC50.
As to `CCCC[C@H]1C(=O)N2CCC[C@@H]2C(=O)N[C@@H](CC(=O)O)C(=O)N[C@@H](C(C)C)C(=O)N(C)[C@@H](C(C)CC)C(=O)N[C@@H](Cc2ccc(O)cc2)C(=O)N2CCCC[C@@H]2C(=O)N[C@@H](Cc2c[nH]c3ccccc23)C(=O)N[C@@H](Cc2ccc(O)cc2)C(=O)N[C@@H](CC(C)C)C(=O)N[C@H](C(=O)NCC(N)=O)CSCC(=O)N[C@@H](Cc2ccc(F)cc2)C(=O)N(C)[C@@H](Cc2ccccc2)C(=O)N1C` (some centres unmarked) [Example 9258] ({CH2CO}-[Phe(4-F)][NMeF][NMeNle][dP]DV[NMeIle(3ξ)]Y[dPip]WYLCG-NH2; thioether N-13), the IC50 was determined as 7280 nM.
Regarding `CCCC[C@H]1C(=O)N2CCC[C@@H]2C(=O)N[C@@H](CC(=O)O)C(=O)N[C@@H](C(C)(C)C)C(=O)N(C)[C@@H](Cc2ccccc2)C(=O)N[C@@H](Cc2ccc(O)cc2)C(=O)N2CCCC[C@@H]2C(=O)N[C@@H](Cc2c[nH]c3ccccc23)C(=O)N[C@@H](Cc2ccc(O)cc2)C(=O)N[C@@H](CC(C)C)C(=O)N[C@H](C(=O)NCC(N)=O)CSCC(=O)N[C@@H](Cc2cc(F)c(F)c(F)c2)C(=O)N(C)[C@@H](Cc2ccccc2)C(=O)N1C` [Example 3222] ({CH2CO}-[Phe(3,4,5-F3)][NMeF][NMeNle][dP]D[Tle][NMeF]Y[dPip]WYLCG-NH2; thioether N-13), the IC50 amounted to 4.5 nM.
